Experimental data published in patent US10568913B2, “Method for generating mature β-like cells” (The University of Western Australia, priority 2013, dated 2020).

System: Ngn3+ progenitor-containing E-cad+ cells
Assay: Insulin-producing (MIPGFP+) cell differentiation from sorted E-cad+ cells of E15.5 MIPGFP mouse pancreas
Format: cell-based
Details: for effect on Nic-induced differentiation: co-culture with Nic 10 mM (FIG. 1g, 5, 13, 15); for promotion of MIPGFP+ insulin-producing cell differentiation by the molecule on its own: compound alone, without Nic, day 4 (FIG. 1g, 5a)
Method: Approximately 7,500 E15.5 [at which the number of Ngn3^+ progenitors is peaked] mouse fetuses from both MIPGFP and Ngn3-GPF/RIP-DsRed lines were used for enrichment/purification of Ngn3^+ progenitors. Mouse pancreases were dissected under a stereoscope (Olympus, Tokyo, Japan). Eleven human fetal pancreases were collected from 18-22 week-fetuses (Table 1) and minced. Both mouse and human pancreases were enzymatically dissociated into single cells under aseptic conditions. […] After each incubation with antibodies, cells were washed twice with FACS buffer (0.1% bovine serum albumin in phosphate buffered saline) and finally re-suspended in this buffer containing 1 μg/ml propidium iodide (PI) or 4′,6-diamidino-2-phenylindole (DAPI) for sorting (FACSAria II, Becton Dickson Labware, Bedford). The purity of sorted cells was determined by post-sort analysis.
Sorted β-cell progenitor-enriched cells or Ngn3^+ β-cell progenitors were differentiated in 96-, 12- or 6-well plates (BD Labware). […] Growth factor-reduced Matrigel (200 μg/ml, BD Biosciences) was overlayed onto cells in the presence of various potential regulators. Thyrotropin releasing hormone (TRH, 100 nM) was purchased from Auspep (Melbourne, Australia). […] Cultures were incubated in 10% CO2 90% air at 37° C., for up to 8 days.
The number of β-like cells was directly quantified under a fluorescence microscope. To verify the accuracy of cell count, at least five randomly chosen fields per well were microphotographed under the inverse IX71 Olympus fluorescence microscope (Olympus, Tokyo, Japan) and the number of β-like cells determined with the Image Pro Plus software installed in the computer.

Compound: 6-chloro-2,3,4,9-tetrahydro-1H-carbazo-1-carboxamide [EX527]
- effect on Nic-induced differentiation: did reduce Nic-induced differentiation
- promotion of MIPGFP+ insulin-producing cell differentiation by the molecule on its own: did not significantly promote differentiation

Compound: O=C1Nc2cc(Br)ccc2/C1=C1/Nc2ccccc2/C1=N\O [BIO, (2′Z,3′E)-6-bromoindirubin-3′-oxime]
- effect on Nic-induced differentiation: suppressed or abolished
- promotion of MIPGFP+ insulin-producing cell differentiation by the molecule on its own: did not yield

Compound: C[C@H](NC(=O)Cc1cc(F)cc(F)c1)C(=O)N[C@H](C(=O)OC(C)(C)C)c1ccccc1 [DAPT]
- promotion of MIPGFP+ insulin-producing cell differentiation by the molecule on its own: did not yield

Compound: NC(=O)c1ccncc1 [INic, isonicotinamide]
- number of MIPGFP+ cells compared to Nic (INic 10 mM alone, days 4, 6 and 8): approximately half

Compound: O=C(O)C(Cc1c[nH]c2ccccc12)N1C(=O)c2ccccc2C1=O (stereo not drawn) [RG-108, α-(1,3-dihydro-1,3-dioxo-2H-isoindo1-2-yl)-1H-indole-3-propanoic acid]
- promotion of MIPGFP+ insulin-producing cell differentiation by the molecule on its own: did not yield

Compound: NC(=O)[C@@H]1CCCN1C(=O)[C@H](Cc1cnc[nH]1)NC(=O)[C@@H]1CCC(=O)N1 [TRH, Thyrotropin releasing hormone]
- promotion of MIPGFP+ insulin-producing cell differentiation by the molecule on its own: did not yield

Compound: COc1cc(/C=C/C(=O)CC(=O)/C=C/c2ccc(O)c(OC)c2)ccc1O [curcumin, (E, E)-1,7-bis (4-hydroxy-3-methoxyphenyl)-1,6-heptadiene-3,5-dione]
- effect on Nic-induced differentiation: significantly reduced

Compound: NC(=O)c1ccc[n+]([C@@H]2O[C@H](COP(=O)([O-])O)[C@@H](O)[C@H]2O)c1 [nicotinamide mononucleotide, β-nicotinamide mononucleotide]
- effect on Nic-induced differentiation: did not modify

Compound: O=c1c(O)c(-c2ccc(O)c(O)c2)oc2cc(O)cc(O)c12 [quercetin]
- effect on Nic-induced differentiation: suppressed or abolished
- promotion of MIPGFP+ insulin-producing cell differentiation by the molecule on its own: did not yield

Compound: Oc1ccc(/C=C/c2cc(O)cc(O)c2)cc1 [resveratrol, 5-[(1E)-2-(4-hydroxyphenyl)ethenyl]-1,3-benzenediol]
- effect on Nic-induced differentiation: completely abolished
- cellular viability (in combination with Nic): without apparently affecting cellular viability

Compound: CCCC(=O)[O-].[Na+] [sodium butyrate]
- effect on Nic-induced differentiation: significantly (p<0.05) reduced

Compound: CC(=O)C(=O)[O-].[Na+] [sodium pyruvate]
- effect on Nic-induced differentiation: significantly inhibited

Compound: CC(/C=C/C(=O)NO)=C\[C@@H](C)C(=O)c1ccc(N(C)C)cc1 [trichostatin A]
- effect on Nic-induced differentiation: significantly (p<0.05) reduced

Compound: C[C@H](NC(=O)Cc1cc(F)cc(F)c1)C(=O)N[C@H]1N=C(c2ccccc2)c2ccccc2N(C)C1=O [γ-secretase inhibitor XXI]
- promotion of MIPGFP+ insulin-producing cell differentiation by the molecule on its own: did not yield

Compound: CC(C)C[C@H](NC(=O)[C@H](Cc1ccccc1)C[C@@H](O)[C@H](Cc1ccccc1)NC(=O)OC(C)(C)C)C(=O)N[C@@H](Cc1ccccc1)C(N)=O [γ-secretase inhibitor X]
- promotion of MIPGFP+ insulin-producing cell differentiation by the molecule on its own: did not yield

Compound: exendin-4 [Ex4]
- promotion of MIPGFP+ insulin-producing cell differentiation by the molecule on its own: did not yield
